Non-standard residues stand in square brackets, D forms with d. Residues, ends and D or L forms follow the SMILES beside them. *: point of attachment. dMet(O) = CS(=O)CC[C@@H](N)C(=O)O; Lauroyl = CCCCCCCCCCCC(=O)*; Decanoyl = CCCCCCCCCC(=O)*; NH(CH2)4NH2 = NCCCCN*; For = O=C*
Legend:
[1] = test system: human lung adenocarcinoma cell A549; assay: MTT cytotoxicity assay, A549; type: cell-based; settings: 24 h
Excerpt: (§1) The two human acute lymphoblastic leukemia cells K562 and Kasumi, two human breast adenocarcinoma cells MCF7 and MDA-MB-231, human hepatoma cell HepG-2, human lung adenocarcinoma cell A549, human gastric cancer cell SGC-7901, human colon cancer cell HCT-116, human ovarian cancer cell line SKOV3, or human lung epithelial normal cell 2B were obtained from Beyotime Biotechnology and utilized to test the cytotoxicity of compounds by MTT assays as previous study. The anti-inflammatory effect of the compounds was detected by the influence on the increase in the level of nitric oxide caused by lipopolysaccharide (LPS) based on the classic Griess method. RAW 264.7 cells (Shanghai Institutes for Biological Science) were seeded in 96-well plates and incubated for 24 h. Then, cells were treated with compounds 29, 29a, 31, and 31a (0-80 μM) for 30 min, followed by co-treatment with LPS ([…]) for another 24 h. The Nitric Oxide assay kit with Griess reagents (Beyotime, Lot: S0021, Shanghai, China) was used to examine cellular supernatant nitrite accumulation, which represents cellular NO levels. The OD value of 540 nm absorbance was detected with a microplate reader. Their authentication in the laboratory was performed regularly based on morphology and gene/protein expression. The tested micro-organisms including Gram-negative bacteria E. coli ATCC 35218 and Pseudomonas aeruginosa ATCC 27853, and Gram-positive bacteria Staphylococcus aureus ATCC 29213 and B. subtilis ATCC 6633, and fungi Candida albicans, Rhizoctonia solani and Aspergillus fumigatus were treated with different concentrations of compounds (1 μM, 10 μM, 100 μM) using Bauer-Kirby disk diffusion method to evaluate the antimicrobial activities.

[2] = test system: human gastric cancer cell SGC-7901; assay: cells; type: cell-based; settings: 24 h
Excerpt: as §1

[3] = test system: human breast adenocarcinoma cells MDA-MB-231; assay: cells; type: cell-based; settings: 24 h
Excerpt: as §1

[4] = test system: human lung epithelial normal cell 2B; assay: cells; type: cell-based; settings: 24 h
Excerpt: as §1

[5] = test system: human breast adenocarcinoma cells MCF7; assay: cells; type: cell-based; settings: 24 h
Excerpt: as §1

[6] = test system: human acute lymphoblastic leukemia cells K562; assay: cells; type: cell-based; settings: 24 h
Excerpt: as §1

[7] = test system: human hepatoma cell HepG-2; assay: cells; type: cell-based; settings: 24 h
Excerpt: as §1

[8] = test system: human colon cancer cell HCT-116; assay: cells; type: cell-based; settings: 24 h
Excerpt: as §1

human cells Kasumi = assay: MTT cytotoxicity assay, Kasumi; type: cell-based; settings: 24 h
Excerpt: as §1

[9] = test system: S. brevitalea DSM 7029 wild type; assay: Biofilm formation of DSM 7029 wild type with compounds (crystal violet); type: cell-based, Schlegelella brevitalea DSM 7029
Procedure: (§2) The growth curve was tested by Bioscreen C (Labsystems, Finland) as follow. Overnight culture was inoculated into 400 μL fresh CYMG medium in the ratio of 1:100 (the concentration of compounds was 0.1 μg/μL) and shook in normal speed. The OD600 value was gained in every hour for 42 h in total. Biofilm formation was measured at 18 h and 36 h respectively, as reported previously. In brief, the free-floating cells were removed, and the microtitre plate was washed with PBS (pH 7.4) after incubation for 18 h and 36 h. The biofilm was stained by adding 200 µL of crystal violet (0.1%) solution. Crystal violet solution was removed after 15 min and 200 µL of ethanol (95%) was added. The absorbance at OD600 was read using a microplate reader (Infinite M200, Tecan, Männedorf, Switzerland). Meanwhile, free-floating cells were used to test the secretion of pigment. The bacteria were removed and the supernatant was measured at OD600.

[10] = test system: S. brevitalea DSM 7029 wild type; assay: Growth curve of DSM 7029 wild type with compounds (Bioscreen C); type: cell-based, Schlegelella brevitalea DSM 7029; settings: CYMG medium, compound 0.1 μg/μL, OD600 every hour for 42 h, Bioscreen C
Procedure: as §2

tumor lines = assay: MTT cytotoxicity assay, statements on the whole panel; type: cell-based, human; settings: MTT assay, panel of tumor cell lines
Excerpt: as §1

[11] = test system: C13 domain of GdnB fragments and mutants; assay: Condensation of T12-linked L-Ala with Put or other diamines (yield of 24a-27a, LC-MS); type: biochemical, Schlegelella brevitalea DSM 7029; settings: Average of n = 3
Procedure: In vitro assays for the different enzymes of the C-terminal multi-domains were performed. Reaction buffer contained 80 μM protein, 3 μM Sfp from B. subtilis, 200 μM CoA, 2.5 mM L-Ala and 5 mM ATP was incubated at 30 °C for 30 min. Then, 2.5 mM diamines or polyamines (i.e. putrescine, 1,7-diaminoheptane, 1,6-diaminohexane, 1,5-diaminopentane, 1,2-diaminocyclohexane, spermine, and spermidine, respectively) was added to make final volume of 200 μL. The reaction was further incubated at 30 °C for 1 h or 4 h. Triple amount of cold methanol was added to quench the reaction, and the supernatant was dried by SpeedVac after removed the precipitate at 10,000 × g for 8 min. The reaction mixture was dissolved with 200 μL ddH2O, and then the mixture was derived with D-FDAA according to the procedure of the above Marfey’s analysis. The final reaction mixture was suspended using 100 μL 2 M HCl, which subsequently was dried by SpeedVac. Finally, the mixture dissolved with 100 μL MeOH to detect the target products (24a, 25a, 26a, and 27a) using LC‒MS analysis (5%‒95% ACN in 15 min).

[12] = test system: A1 domain of CsA1T1 (GdnA); assay: Adenylation activity of A1 domain (ATP/PPi exchange, pyrophosphate production assay); type: biochemical, Schlegelella brevitalea DSM 7029; settings: for relative activity of A1 domain for the activation of amino acids, Average: CsA1T1 1 μM, 10 mM amino acid, 2.5 mM ATP, pH 7.6, A360, L-Met = 100%, mean of n = 3; for selectivity of A1 domain for amino acids in words: response to reviewers on Supplementary Fig. 6a
Procedure: For pyrophosphate production assays, the reaction system contains 10 mM amino acid substrates, 2.5 mM ATP (Solarbio), 0.2 mM MESG (Medchemexpress), 1 U/mL purine nucleoside phosphorylase (Shanghai yuanye Bio-Technology Co., Ltd), 0.4 U/mL inorganic pyrophosphatase (Sigma), 150 mM hydroxylamine (Sigma) and 1 μM proteins in 100 μL buffer (50 mM Tris, 300 mM NaCl and 5 mM MgCl2, pH 7.6). The value was read at A360 in a SpectraMax M5 plate reader (Molecular Devices, Sunnyvale, California) in 96 well, clear-bottomed plates (Corning). A360 values were converted to pyrophosphate release, by comparing with a standard curve (KH2PO4 from 2 μM to 128 μM) for known quantities of pyrophosphate.

CC(C)[C@H](NC(=O)[C@@H]1CCCN1C(=O)[C@@H](CC(N)=O)NC(=O)[C@H](N)CC[S+](C)[O-])C(=O)N[C@H](Cc1ccccc1)C(=O)N1CCC[C@H]1C(=O)N[C@@H](Cc1c[nH]c2ccccc12)C(=O)N[C@@H](C(=O)N[C@@H](C)C(=O)N[C@H](C)C(=O)N[C@@H](CO)C(=O)N[C@@H](C)C(=O)NCCCCN)C(C)C (stereo partly shown) [Compound 2, Glidonin B] (H-[dMet(O)][dN]PV[dF]PW[dV]A[dA]SA-{NH(CH2)4NH2})
IC50 [1]: > 20 µM
IC50 [2]: > 20 µM
IC50 [3]: > 20 µM
IC50 [4]: > 20 µM
IC50 [5]: > 20 µM
IC50 [6]: > 20 µM
IC50 [7]: > 20 µM
IC50 [8]: > 20 µM
IC50 (human cells Kasumi): > 20 µM
effect on biofilm formation of DSM 7029 wild type in words ([9]; crystal violet staining): less effect on biofilm formation
biofilm formation 18 h, Average ([9]; relative to wild type treated with H2O = 100%, crystal violet 0.1%, OD600, mean of n = 3): 92.0189%
biofilm formation 36 h ([9]; relative to wild type treated with H2O = 100%, crystal violet 0.1%, OD600, replicate 1): 105.006%
biofilm formation 36 h ([9]; relative to wild type treated with H2O = 100%, crystal violet 0.1%, OD600, replicate 2): 81.9095%
biofilm formation 36 h ([9]; relative to wild type treated with H2O = 100%, crystal violet 0.1%, OD600, replicate 3): 97.572%
effect on growth of DSM 7029 wild type in words [10]: no effect

CSCC[C@@H](NC=O)C(=O)N[C@H](CC(N)=O)C(=O)N1CCC[C@H]1C(=O)N[C@H](C(=O)N[C@H](Cc1ccccc1)C(=O)N1CCC[C@H]1C(=O)N[C@@H](Cc1c[nH]c2ccccc12)C(=O)N[C@@H](C(=O)N[C@@H](C)C(=O)N[C@H](C)C(=O)N[C@@H](CO)C(=O)N[C@@H](C)C(=O)NCCCCN)C(C)C)C(C)C [Compound 4, Glidonin D] (For-[dM][dN]PV[dF]PW[dV]A[dA]SA-{NH(CH2)4NH2})
IC50 [1]: > 20 µM
IC50 [2]: > 20 µM
IC50 [3]: > 20 µM
IC50 [4]: > 20 µM
IC50 [5]: > 20 µM
IC50 [6]: > 20 µM
IC50 [7]: > 20 µM
IC50 [8]: > 20 µM
IC50 (human cells Kasumi): > 20 µM

CCCCCCCCCC(=O)N[C@H](CCSC)C(=O)N[C@H](CC(N)=O)C(=O)N1CCC[C@H]1C(=O)N[C@H](C(=O)N[C@H](Cc1ccccc1)C(=O)N1CCC[C@H]1C(=O)N[C@@H](Cc1c[nH]c2ccccc12)C(=O)N[C@@H](C(=O)N[C@@H](C)C(=O)N[C@H](C)C(=O)N[C@@H](CO)C(=O)N[C@@H](C)C(=O)NCCCCN)C(C)C)C(C)C [Compound 6, Glidonin F] (Decanoyl-[dM][dN]PV[dF]PW[dV]A[dA]SA-{NH(CH2)4NH2})
IC50 [1]: > 20 µM
IC50 [3]: > 20 µM
IC50 [4]: > 20 µM
IC50 [7]: > 20 µM

CCCCCCCCCCCC(=O)N[C@H](CC(C)C)C(=O)N[C@H](CC(N)=O)C(=O)N1CCC[C@H]1C(=O)N[C@H](C(=O)N[C@H](Cc1ccccc1)C(=O)N1CCC[C@H]1C(=O)N[C@@H](Cc1c[nH]c2ccccc12)C(=O)N[C@@H](C(=O)N[C@@H](C)C(=O)N[C@H](C)C(=O)N[C@@H](CO)C(=O)N[C@@H](C)C(=O)NCCCCN)C(C)C)C(C)C [Compound 9, Glidonin I] (Lauroyl-[dL][dN]PV[dF]PW[dV]A[dA]SA-{NH(CH2)4NH2})
IC50 [1]: 3.26 µM
IC50 [2]: > 20 µM
IC50 [3]: 4.26 µM
IC50 [4]: 10.4 ± 0.54 µM
IC50 [5]: > 20 µM
IC50 [6]: > 20 µM
IC50 [7]: > 20 µM
IC50 [8]: > 20 µM
IC50 (human cells Kasumi): 9.65 ± 0.4 µM
cytotoxic / antitumor activity in words (tumor lines): broad-spectrum cytotoxicity

CC(N)C(=O)NCCCCNc1cc(NC(C)C(N)=O)c([N+](=O)[O-])cc1[N+](=O)[O-] [Compound 24a, L-Ala-Put-FDAA]
L-Ala condensing with Put, 1,5-diaminopentane, 1,6-diaminohexane, and 1,7-diaminoheptane (Relative Yield of product) ([11]; protein A12T12): 100
L-Ala condensing with Put, 1,5-diaminopentane, 1,6-diaminohexane, and 1,7-diaminoheptane (Relative Yield of product) ([11]; protein A12T12C13A*T13): 1640

CC(N)C(=O)NCCCCCNc1cc(NC(C)C(N)=O)c([N+](=O)[O-])cc1[N+](=O)[O-] (stereo not shown) [Compound 25a]
L-Ala condensing with Put, 1,5-diaminopentane, 1,6-diaminohexane, and 1,7-diaminoheptane (Relative Yield of product) ([11]; protein A12T12): 100
L-Ala condensing with Put, 1,5-diaminopentane, 1,6-diaminohexane, and 1,7-diaminoheptane (Relative Yield of product) ([11]; protein A12T12C13A*T13): 794.339

NCC(=O)O [Gly]
relative activity of A1 domain for the activation of amino acids, Average [12]: 3.896%

C[C@H](N)C(=O)O [L-Ala]
relative activity of A1 domain for the activation of amino acids, Average [12]: 37.8571%
selectivity of A1 domain for amino acids in words [12]: broad selectivity

NC(=O)C[C@H](N)C(=O)O [L-Asn]
relative activity of A1 domain for the activation of amino acids, Average [12]: 8.604%

N[C@@H](CS)C(=O)O [L-Cys]
relative activity of A1 domain for the activation of amino acids, Average [12]: 4.302%

NC(=O)CC[C@H](N)C(=O)O [L-Gln]
relative activity of A1 domain for the activation of amino acids, Average [12]: 42.7539%
selectivity of A1 domain for amino acids in words [12]: broad selectivity

— article PMC10587159, “Biosynthesis and engineering of the nonribosomal peptides with a C-terminal putrescine” (Nature Communications, 2023)
